# Test system: human respiratory syncytial virus (RSV) in LLC-MK2 cells
# Assay: RSV inhibition assay in LLC-MK2 cells (immunoperoxidase), PBS
# Assay type: cell-based
# Conditions: Carrageenan's IC50; Carrageenan alone
# Procedure: Additional studies were performed to determine the synergistic anti-viral effects of diacetyltartaric acid esters of mono- and diglycerides, lipophilic monoglycerides (MG) and carrageenan. These studies were carried out using […] and PBS as the diluent. The RSV inhibition assay semi-quantitatively determines the ability of a test material (antibody or other bioactive compound) to inhibit the infection of monkey kidney cells (LLC-MK2) by human respiratory syncytial virus (RSV). Infected cells are identified using an immunoperoxidase method and counted. The method is performed in a microtiter format and is described briefly below:
# LLC-MK2 rhesus monkey kidney cells were obtained from the American Type Culture Collection and were cultured in Eagles […] essential medium (EMEM) supplemented with 10% fetal bovine serum. […] Plates were then rinsed as above with PBS/CEA, and the number of stained RSV-infected cells (IC) per well determined using an inverted microscope. The number of ICs' in triplicate wells was compared with the number of ICs' of virus control wells (mean of 9)and the percent inhibition (PI) calculated; [PI=1.0-[Mean ICs' per well of test sample/Mean ICs' per well of virus control]. […]
substance,measurement,value
Carrageenan,Enhancement Factor,1.0

# From patent US5908862A, “Water-miscible esters of mono--and diglycerides having antibacterial activity and their use in inhibiting infection” (priority 1996, dated 1999)
